Experiment [1] deals with LX-2 hepatic stellate cells. Kind of experiment: TGFβ1-induced fibrogenic gene expression (Col1a1, Acta2, Timp2) in LX-2 hepatic stellate cells, qPCR. Format: cell-based, human. An excerpt: Hepatic stellate cells in a healthy liver are in the space of Disse, between the hepatocytes and liver sinusoidal endothelial cells. In response to liver injury hepatic stellate cells become activated, proliferative and contractile, increase production of aSMA, secretion of type I and III collagens and specific MMP and TIMP proteins. LX-2 cells were selected as a model of activated hepatic stellate cells and used to test whether specific amino acid compositions would reduce fibrogenic gene expression induced with TGFβ1.
LX-2 hepatic stellate cells (Millipore) were seeded on day 0 at 1.67E4 cells per well in collagen I coated 96-well microplates (ThermoFisher) in Dulbecco's Modified Eagle Medium (DMEM, Corning) supplemented with 2% heat inactivated fetal bovine serum (HI-FBS, HyClone) and 0.2% Primocin (InVivoGen) and incubated overnight at 37° C., 5% CO2. […] Combinations containing N-acetylcysteine were dosed with 10 mM. Cells were pretreated for 6 hours at 37° C., 5% CO2. After pretreatment, TGFβ1 (R&D Systems) or vehicle was spiked into each well for a final concentration of 5 ng/mL and cells were incubated under this stimulus for a further 12 hours at 37° C., 5% CO2.
After 12 hour incubation, RNA extraction and quantitative PCR was conducted on lysates to determine collagen-1a1 expression normalized to β-actin housekeeping expression using the ΔΔCt method using TaqMan primer probes (Integrated DNA Technologies: Col1A1, Hs.PT.58.15517795; Actb, Hs.PT.39a.22214847; Acta2, Hs.PT.56a.24853961; Timp2, Hs.PT.58.14780594).
In general terms: Real-time PCR tracks product formation cycle by cycle.

For experiment [2], the system named is Hsp47 gene expression, primary human hepatic stellate cells. Kind of experiment: Hsp47 gene expression in TGFβ1-stimulated primary human hepatic stellate cells. Format: cell-based. The following applies: primary human hepatic stellate cells, three healthy donors, TGFβ1 3 ng/mL 24 h; summary in words. The procedure:
Primary human hepatic stellate cells were obtained from Samsara Sciences based on the following criteria for selecting donors: adult age (between 18 and 50 years), normal BMI (>18.5 and <25), and absence of confounding liver disease. Cells grown in Complete HSC Medium to ˜80% confluence in T75 or T150 flasks below passage 10 were seeded into sterile, collagen I coated, 96-well optical plastic microplates (ThermoScientific, 152036) at 6000 cells per well (1250 cells per cm2) and incubated overnight at 37° C., 5% CO2 in a humidified incubator in DMEM with 2% Fetal Bovine Serum and 1% Antibiotic-Antimycotic.
After the overnight incubation, plates were removed from the incubator and the medium was gently pipetted off and washed twice with 150 μL per well DPBS. The DPBS was removed and the pretreatment medium (±single amino acid dropout, 1×HMDB DMEM+1% Antibiotic-Antimycotic, 10 mM HEPES, ±supplemental amino acid dose; see experiment for medium composition) was applied to the cells at 150 μL per well. Plates were returned to the incubator for 10.5 hours.
After 10.5 hour pretreatment, the medium was removed from the cells, and the same pretreatment medium, now supplemented with 3 ng/mL TGFβ1, was applied. Each plate contained 3 ng/mL TGFβ1 in 1× human plasma amino acid (HMDB or PAA) concentration medium, 0 ng/mL in 1×HMDB, and 3 ng/mL TGFβ1+20 μM Silybin in 1×HMDB to serve as controls. Plates were then incubated for 24 hours at 37° C., 5% CO2.
After 24 hour stimulus, supernatant was removed and frozen at −80° C. in two separate aliquots. The cells were then washed with 125 μL per well Buffer FCW (FastLane Cell Multiplex NR Kit, Qiagen, 216713). The wash buffer was immediately removed and 50 μL of Cell Processing Mix (containing genomic DNA Wipeout buffer) was applied to lyse cells, incubating for 10 minutes at room temperature. RNA lysate was then transferred to 96-well qPCR plates, sealed, and gDNA was digested on thermal cycler at 75° C. for 5 minutes. RNA lysate was frozen at −80° C.
Each 20 μL one-step RT-qPCR reaction contained 4 μL of RNA lysate. Gene expression of Hsp47, and Gapdh were multiplexed using the HEX, and FAM fluorescent channels, respectively, with commercially available primer-probe mixes (the Human Hsp47 Primer-Probe Set, HEX; and the Human Gapdh Primer-Probe Set, FAM from IDT). Gene expression was evaluated using the ΔΔCq method within each single amino acid dropout and supplementation by normalizing to its own 1×HMDB concentration.

In experiment [3] the test system is procollagen Iα1 secretion, primary human hepatic stellate cells. Kind of experiment: Procollagen Iα1 secretion by TGFβ1-stimulated primary human hepatic stellate cells, ELISA. In kind it is cell-based. Particulars: primary human hepatic stellate cells, three healthy donors, TGFβ1 3 ng/mL 24 h; summary in words. The protocol:
(§1) Primary human hepatic stellate cells were obtained from Samsara Sciences. Cells were grown in Complete HSC Medium to ˜80% confluence in T75 or T150 flasks below passage 10 were seeded into sterile, collagen I coated, 96-well optical plastic microplates (ThermoScientific, 152036) and incubated overnight at 37° C., 5% CO2 in a humidified incubator in DMEM with 2% Fetal Bovine Serum and 1% Antibiotic-Antimycotic. After the overnight incubation, plates are washed and pretreated with medium±single amino acid dropout, 1×HMDB DMEM±supplemental amino acid dose for 10.5 hours. After 10.5 hour pretreatment, the same pretreatment medium supplemented with 3 ng/mL TGFβ1, was applied and incubated for 24 hours at 37° C., 5% CO2. After 24 hour stimulus, supernatant was removed, RNA was extracted and gene expression was evaluated using the ΔΔCq method within each single amino acid dropout and supplementation by normalizing to its own 1×HMDB concentration.
Human Procollagen 1α1 was measured from the supernatant by ELISA (Human ProCollagen I alpha 1 DuoSet ELISA, R&D Systems) at 1/100 dilution in 1× Reagent Diluent (Reagent Ancillary Kit 2, R&D Systems).
Tables 32, 33, 33-1, 33-2, 33-3, and 33-4 show the fold change in procollagen Iα1 in primary human hepatic stellate cells from three different healthy donors normalized to their respective baseline amino acid conditions. Statistical significance calculated by one-way

Experiment [4] deals with Col1a1 gene expression, primary human hepatic stellate cells. Put plainly: Col1a1 gene expression in TGFβ1-stimulated primary human hepatic stellate cells. Particulars: primary human hepatic stellate cells, three healthy donors, TGFβ1 3 ng/mL 24 h; summary in words. Format: cell-based. The protocol:
as §1

Where [5] appears, read: LX-2 cells with TGFβ1, individual amino acid at 1X HMDB derived concentration.
[6] abbreviates: LX-2 cells with TGFβ1, individual amino acid at 50X HMDB derived concentration.
The mark [7] stands for this setting: LX-2 cells, TGFβ1 5 ng/mL 12 h, combinations at 40× HMDB, N-acetylcysteine 10 mM, normalized to β-actin.

As to `CC(C)C[C@H](N)C(=O)O` [LEU, leucine], the “Col1a1 gene expression, mean” value was determined as 1.901 in experiment [1] (setting [5]) and 2.372 in experiment [1] (setting [6]). The Hsp47 gene expression entry in experiment [2] was “did not significantly change”.

For the compound `N[C@@H](CS)C(=O)O` [CYS, cysteine], the “Col1a1 gene expression, mean” value in experiment [1] (setting [5]) is listed as 2.491; in experiment [1] (setting [6]) it was 1.695; in experiment [1] (LX-2 cells with TGFβ1, individual amino acid at 50X HMDB derived concentration, listed as cysteine), “significant decrease”.

For the compound `N=C(N)NCCC[C@H](N)C(=O)O` [ARG, arginine], the “procollagen Iα1 secretion” value in experiment [3] was “significantly increased procollagen Iα1 secretion in two of three donors”. For the same compound, the “Col1a1 gene expression, mean” value was 1.620 in experiment [1] (setting [5]) and 1.970 in experiment [1] (setting [6]). For the same compound, the Hsp47 gene expression result in experiment [2] is recorded as “significantly increased Hsp47 gene expression in two of three donors”. Besides, the Col1a1 gene expression entry in experiment [4] is reported as “did not significantly change”.

On to `NC(=O)CC[C@H](N)C(=O)O` [GLN, glutamine], for which the “Col1a1 gene expression, mean” value is reported as 2.340 in experiment [1] (setting [5]) and 2.194 in experiment [1] (setting [6]). The Hsp47 gene expression entry in experiment [2] is given as “significantly increased Hsp47 gene expression in one of three donors”.

Regarding `CC(=O)N[C@@H](CS)C(=O)O` [NAC, N-acetylcysteine], in experiment [3], the “procollagen Iα1 secretion” value was “significantly decrease procollagen Iα1 secretion in two of the three donors”. Further, the “Acta2 gene expression, mean” value in experiment [1] (setting [7]) is reported as 0.647. Moreover, the “Timp2 gene expression, mean” value in experiment [1] (setting [7]) is 1.076; in experiment [1] (LX-2 cells, TGFβ1 5 ng/mL 12 h, combinations at 40× HMDB, N-acetylcysteine 10 mM, normalized to β-actin, listed as N-acetylcysteine), “reduced”. For the same compound, the “Col1a1 gene expression, mean” value in experiment [1] (LX-2 cells, TGFβ1 5 ng/mL 12 h, combinations at 40× HMDB, N-acetylcysteine 10 mM, normalized to β-actin (ΔΔCt)) is 1.659; in experiment [1] (LX-2 cells, TGFβ1 5 ng/mL 12 h, combinations at 40× HMDB, N-acetylcysteine 10 mM, normalized to β-actin (ΔΔCt), listed as N-acetylcysteine), “reduced”. In addition, the Col1a1 gene expression entry in experiment [4] was “significantly reduced Col1a1 gene expression in all three donors”.
